Data as given in patent US7169789B2 (Kirin Beer Kabushiki Kaisha, priority 1999, dated 2007).

What was measured:
human KDR = molecular target: T1, human KDR (Homo sapiens, UniProt P35968); experiment: Inhibitory activity against KDR phosphorylation by ELISA; assay type: cell-based; settings: NIH 3T3 cells transfected with human KDR, VEGF 100 ng/ml
T1 construct: expressed in transfected cells; host or cells: NIH 3T3 cells (Sawano A et al., Cell Growth & Differentiation 7, 213-221 (1996))
Procedure: Measurement of Inhibitory Activity Against KDR Phosphorylation by ELISA
NIH 3T3 cells (Sawano A et al., Cell Growth & Differentation, 7, 213–221 (1996), “Flt-1 but not KDR/Flk-1 tyrosine kinase is a receptor for placenta growth factor, which is related to vascular endothelial growth factor”) prepared by transfection of human KDR were cultured in a DMEM medium containing 10% fetal calf serum (purchased from GIBCO BRL) within a 5% carbon dioxide incubator until 50 to 70% confluent. The harvested cells were inoculated into wells, containing the same medium, in a collagen-type one-coat 96-well flat-bottom plate in an amount of 1.5×10^4 per well, followed by cultivation at 37° C. overnight. The medium was then replaced by a DMEM medium containing 0.1% fetal calf serum. A solution of the test compound in dimethyl sulfoxide was added to each well, and the cultivation was continued at 37° C. for additional one hr. A human recombinant vascular endothelial growth factor (hereinafter abbreviated to “VEGF”) was added to a final concentration of 100 ng/ml, and the stimulation of cells was carried out at 37° C. for 2 min. The medium was removed, the cells were washed with phosphate buffered saline (pH 7.4), and 50 μl of a solubilization buffer (20 mM HEPES (pH 7.4), 150 mM NaCl, 0.2% Triton X-100, 10% glycerol, 5 mM sodium orthovanadylate, 5 mM disodium ethylenediaminetetraacetate, and 2 mM Na4P2O7) was then added thereto. The mixture was shaken at 4° C. for 2 hr to prepare a cell extract.
Separately, phosphate buffered saline (50 μl, pH 7.4) containing […] of anti-phospho-tyrosine antibody (PY20; purchased from Transduction Laboratories) was added to a microplate for ELISA (Maxisorp; purchased from NUNC), followed by standing at 4° C. overnight to form a solid phase on the wells. After washing of the plate, 300 μl of a blocking solution was added, followed by standing at room temperature for 2 hr to perform blocking. After washing, the whole quantity of the cell extract was transferred to the wells, and the plate was then allowed to stand at 4° C. overnight. After washing, an anti-KDR antibody (purchased from Santa Cruz) was allowed to react at room temperature for one hr, and, after washing, a peroxidase-labeled anti-rabbit Ig antibody (purchased from Amersham) was allowed to react at room temperature for one hr. After washing, a chromophoric substrate for peroxidase (purchased from Sumitomo Bakelite Co., Ltd.) was added thereto to initiate a reaction. After a suitable level of color development, a reaction termination solution was added to stop the reaction, and the absorbance at 450 nm was measured with a microplate reader. The KDR phosphorylation activity for each well was determined by presuming the absorbance with the addition of VEGF and without the addition of the medicament to be 100% KDR phosphorylation activity and the absorbance without the medicament and VEGF to be 0% KDR phosphorylation activity. The concentration of the test compound was varied on several levels, the inhibition (%) of KDR phosphorylation was determined for each case, and the concentration of the test compound necessary for inhibiting 50% of KDR phosphorylation (IC50) was calculated.

Human glioma cells GL07 = experiment: Antitumor effect on human glioma cells (GL07) transplanted into nude mice; assay type: in vivo; settings: GL07, oral, 20 mg/kg once a day for 9 days; for inhibition in vivo at 20 mg/kg: Mus musculus, Glioma cell, 216 h, read-out: TGIR, % (tumor growth inhibition rate)
Procedure: Antitumor Effect on Human Glioma Cells (GL07)
Human glioma cells GL07 (obtained from Central Laboratories for Experimental Animals) were transplanted into nude mice. When the tumor volume became about 100 mm^3, the mice were grouped. In this case, grouping was carried out so that each group consisted of four mice and the average tumor volume was even among the groups. The test compound was orally or intraperitoneally administered at a dose of 20 mg/kg to the test groups every day once a day for 9 days, while the medium was administered to the control group in the manner as in the test groups. The tumor growth inhibition rate (TGIR) was calculated as follows: The tumor growth inhibition rate (TGIR)=(1−Tx/Cx)×100 wherein Cx represents the volume of tumor at day x for the control group when the tumor volume at the day of the start of the administration was presumed to be 1; and Tx represents the volume of tumor for test compound administration groups.

T1 sequence (P35968 20-1356): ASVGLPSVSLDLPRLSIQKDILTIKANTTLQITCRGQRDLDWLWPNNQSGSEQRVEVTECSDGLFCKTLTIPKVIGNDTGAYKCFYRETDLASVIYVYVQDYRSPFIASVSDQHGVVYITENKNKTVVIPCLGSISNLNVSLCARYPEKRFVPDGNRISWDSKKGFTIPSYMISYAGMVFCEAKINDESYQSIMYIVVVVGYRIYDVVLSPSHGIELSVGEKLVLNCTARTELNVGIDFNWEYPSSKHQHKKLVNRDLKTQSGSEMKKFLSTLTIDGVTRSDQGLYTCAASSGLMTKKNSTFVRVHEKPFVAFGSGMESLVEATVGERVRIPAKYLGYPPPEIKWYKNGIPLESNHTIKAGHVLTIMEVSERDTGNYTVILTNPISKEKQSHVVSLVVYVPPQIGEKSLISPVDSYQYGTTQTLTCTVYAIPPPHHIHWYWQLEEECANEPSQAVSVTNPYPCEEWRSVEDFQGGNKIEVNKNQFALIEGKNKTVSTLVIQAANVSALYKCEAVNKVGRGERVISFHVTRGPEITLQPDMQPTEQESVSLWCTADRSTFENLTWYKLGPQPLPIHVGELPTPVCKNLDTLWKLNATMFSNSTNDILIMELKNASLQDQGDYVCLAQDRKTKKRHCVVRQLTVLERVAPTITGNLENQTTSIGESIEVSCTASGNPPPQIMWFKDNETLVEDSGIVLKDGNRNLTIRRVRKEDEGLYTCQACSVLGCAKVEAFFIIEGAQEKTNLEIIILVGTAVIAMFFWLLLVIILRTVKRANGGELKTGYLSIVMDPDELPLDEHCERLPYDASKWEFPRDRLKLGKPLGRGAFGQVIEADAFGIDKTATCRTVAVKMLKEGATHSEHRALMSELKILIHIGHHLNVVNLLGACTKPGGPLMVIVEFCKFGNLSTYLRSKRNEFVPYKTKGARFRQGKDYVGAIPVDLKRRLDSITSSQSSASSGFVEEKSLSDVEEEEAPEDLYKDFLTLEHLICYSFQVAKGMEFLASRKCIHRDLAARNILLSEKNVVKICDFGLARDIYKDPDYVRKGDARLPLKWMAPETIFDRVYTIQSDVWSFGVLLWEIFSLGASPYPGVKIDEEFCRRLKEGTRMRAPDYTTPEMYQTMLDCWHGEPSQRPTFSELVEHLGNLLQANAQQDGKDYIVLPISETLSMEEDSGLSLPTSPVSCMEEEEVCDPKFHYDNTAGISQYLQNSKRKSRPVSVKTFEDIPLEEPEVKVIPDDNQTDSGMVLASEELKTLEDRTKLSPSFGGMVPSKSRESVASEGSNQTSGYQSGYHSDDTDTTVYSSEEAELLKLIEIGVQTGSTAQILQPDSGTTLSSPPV

Row | SMILES | IC50 (human KDR) [nM] | inhibition in vivo at 20 mg/kg (Human glioma cells GL07) [%] | TGIR, % (tumor growth inhibition rate) (Human glioma cells GL07) [%]
1 | CCCNC(=O)Nc1ccc(Oc2ccnc3cc(OCCCCn4ccnc4)c(OC)cc23)cc1Cl [Example 160, N-[2-chloro-4-(7-{[4-(1H-1-imidazolyl)-butoxy]-6-methoxy-4-quinolyl}oxy)phenyl]-N′-propylurea] | 0.9 |  | 43
2 | CCCNC(=O)Nc1ccc(Oc2ncnc3cc(OCCN4CCOCC4)c(OC)cc23)cc1Cl [Example 120, N-(2-Chloro-4-{[6-methoxy-7-(2-morpholinoethoxy)-4-quinazolinyl]oxy}phenyl)-N′-propylurea] | 3.9 | 30 | 
3 | CCCNC(=O)Nc1ccc(Oc2ncnc3cc(OCCCSc4ccncc4)c(OC)cc23)cc1Cl [Example 133, N-[2-Chloro-4-({6-methoxy-7-[3-(4-pyridylthio)propoxy]-4-quinazolinyl}oxy)phenyl]-N′-propylurea] | 8.3 | 20 | 
4 | CCN(CC)C(=O)Nc1ccc(Oc2ncnc3cc(OCc4ccncc4)c(OC)cc23)cc1Cl [Example 126, N′-(2-Chloro-4-{[6-methoxy-7-(4-pyridylmethoxy)-4-quinazolinyl]oxy}phenyl)-N,N-diethyl-urea] | > 1000 | 52 | 
5 | COc1cc2c(Oc3cc(C)c(NC(=O)Nc4ccc(F)cc4F)cc3C)ccnc2cc1OCCn1ccnn1 [Example 177, N-(2,4-Difluorophenyl)-N′-[4-({6-methoxy-7-[2-(1H-1,2,3-triazol-1-yl)ethoxy]-4-guinolyl}oxy)-2,5-dimethylphenyl]urea] | 2.3 | 35 | 
6 | COc1ccccc1NC(=O)Nc1ccc(Oc2ncnc3cc(OC)c(OC)cc23)c(C)c1 [Example 101, N-{4-[(6,7-Dimethoxy-4-quinazolinyl)oxy]-3-methylphenyl}-N′-(2-methoxyphenyl)urea] | 3 | 44 | 
7 | CCCNC(=O)Nc1ccc(Oc2ncnc3cc(OCCCCCn4ccnn4)c(OC)cc23)cc1Cl [Example 125, N-{2-chloro-4-[(6-methoxy-7-{[5-(1H-1,2,3-triazol-1-yl)pentyl]oxy}-4-quinazolinyl)oxy]phenyl}-N′-propylurea] | 2.6 | 30 | 
8 | CCCNC(=O)Nc1ccc(Oc2ncnc3cc(OCc4ccncc4)c(OC)cc23)cc1Cl [Example 123, N-(2-Chloro-4-{[6-methoxy-7-(4-pyridylmethoxy)-4-quinazolinyl]oxy}phenyl)-N′-propylurea] | 8.9 | 31 | 
9 | COc1cc2c(Oc3ccc(NC(=O)N(C)C)c(Cl)c3)ncnc2cc1OCCCN1CCN(C)CC1 [Example 182, N′-[2-Chloro-4-({6-methoxy-7-[3-(4-methylpiperazino)propoxy]-4-quinazolinyl}oxy)phenyl]-N,N-dimethylurea] | > 1000 | 31 | 
10 | CCCNC(=O)Nc1ccc(Oc2ccnc3cc(OCc4cccnc4)c(OC)cc23)cc1Cl [Example 142, N-(2-chloro-4-{[6-methoxy-7-(3-pyridylmethoxy)-4-quinolyl]oxy}phenyl)-N′-propylurea] | 2.6 | 48 | 
11 | COc1cc2c(Oc3ccc(NC(=O)Nc4ccc(F)cc4F)c(Cl)c3)ccnc2cc1OCCCN1CCOCC1 [Example 168, N-(2-chloro-4-{[6-methoxy-7-(3-morpholinopropoxy)-4-quinolyl]oxy}phenyl)-N′-(2,4-difluorophenyl)-urea] | 4 | 42 | 
12 | COC(=O)COc1cc2ncnc(Oc3ccc(NC(=O)N(C)C)c(Cl)c3)c2cc1OC [Example 181, Methyl 2-{[4-(3-chloro-4-{[(dimethylamino)carbonyl]amino}phenoxy)-6-methoxy-7-quinazolinyl]oxy}acetate] | > 1000 | 21 | 
13 | CCCNC(=O)Nc1ccc(Oc2ccnc3cc(OCc4ccncc4)c(OC)cc23)cc1Cl [Example 143, N-(2-chloro-4-{[6-methoxy-7-(4-pyridylmethoxy)-4-quinolyl]oxy}phenyl)-N′-propylurea] | 3.5 | 53 | 
14 | CCCNC(=O)Nc1cc(C)c(Oc2ccnc3cc(OCCCN4CCN(C)CC4)c(OC)cc23)cc1C [Example 176, N-[4-({6-Methoxy-7-[3-(4-methylpiperazino)-propoxy]-4-guinolyl}oxy)-2,5-dimethylphenyl]-N′-propylurea] | 3.7 | 22 | 
15 | COc1cc2c(Oc3ccc(NC(=O)Nc4ccc(F)cc4F)c(Cl)c3)ncnc2cc1OCc1ccncc1 [Example 161, N-(2-Chloro-4-{[6-methoxy-7-(4-pyridylmethoxy)-4-quinazolinyl]oxy}phenyl)-N′-(2,4-difluorophenyl)urea] | 3.9 | 39 | 

More lines, in order of falling IC50 (human KDR), values ahead:

Row | IC50 (human KDR) [nM] | SMILES | inhibition in vivo at 20 mg/kg (Human glioma cells GL07) [%] | TGIR, % (tumor growth inhibition rate) (Human glioma cells GL07) [%]
16 | 2.2 | COc1cc2c(Oc3ccc(NC(=O)Nc4ccc(F)cc4F)c(Cl)c3)ccnc2cc1OCCN1CCN(C)CC1 [Example 166, N-[2-Chloro-4-({6-methoxy-7-[2-(4-methylpiperazino)ethoxy]-4-guinolyl}oxy)phenyl]-N′-(2,4-difluorophenyl)urea] | 27 | 
17 | 1.9 | CCCNC(=O)Nc1ccc(Oc2ccnc3cc(OCCCCCn4ccnn4)c(OC)cc23)cc1Cl [Example 159, N-{2-chloro-4-[(6-methoxy-7-{[5-(1H-1,2,3-triazol-1-yl)pentyl]oxy}-4-quinolyl)oxy]phenyl}-N′-propylurea] | 40 | 
18 | 1.5 | CCCNC(=O)Nc1ccc(Oc2ccnc3cc(OCCCn4ccnn4)c(OC)cc23)cc1Cl [Example 153, N-[2-chloro-4-(6-methoxy-7-{[3-(1H-1,2,3-triazol-1-yl)propoxy]-4-quinolyl}oxy)phenyl]-N′-propylurea] | 53 | 
19 | 1 | COc1cc2c(Oc3ccc(NC(=O)Nc4ccc(F)cc4F)c(Cl)c3)ncnc2cc1OCCN1CCOCC1 [Example 162, N-(2-chloro-4-{[6-methoxy-7-(2-morpholinoethoxy)-4-quinazolinyl]oxy}phenyl)-N′-(2,4-difluorophenyl)urea] | 40 | 
20 | 0.8 | CCCNC(=O)Nc1ccc(Oc2ccnc3cc(OCCn4ccnn4)c(OC)cc23)cc1Cl [Example 145, N-[2-chloro-4-(6-methoxy-7-{[2-(1H-1,2,3-triazol-1-yl)ethoxy]-4-quinolyl}oxy)phenyl]-N′-propylurea] | 57 | 
21 | 0.8 | CCCNC(=O)Nc1ccc(Oc2ccnc3cc(OCCCN4CCN(C)CC4)c(OC)cc23)cc1Cl [Example 152, N-[2-chloro-4-(6-methoxy-7-{[3-(4-methylpiperazino)propoxy]-4-quinolyl}oxy)phenyl]-N′-propylurea] | 44 | 
22 | 0.5 | CCNC(=O)Nc1ccc(Oc2ncnc3cc(OCCCN4CCCCC4)c(OC)cc23)cc1Cl [Example 185, N-(2-chloro-4-{[6-methoxy-7-(3-piperidinopropoxy)-4-quinazolinyl]oxy}phenyl)-N′-ethylurea] | 59 | 
23 | 0.2 | CNC(=O)Nc1ccc(Oc2ncnc3cc(OCCCN4CCCCC4)c(OC)cc23)cc1Cl [Example 184, N-(2-chloro-4-{[6-methoxy-7-(3-piperidinopropoxy)-4-quinazolinyl]oxy}phenyl)-N′-methylurea] | 48 | 
